Patent US6855730B2, “3-methylidenyl-2-indolinone modulators of protein kinase” (Sugen, Inc., priority 1998, dated 2005)

Assays:
EGFR = EGFR (Homo sapiens, UniProt P00533); test: Biochemical EGFR assay (ELISA, A431 cell lysate); design: A431 cell lysate (Screening Lab, SUGEN, Inc.); host or cells: A431; details: read-out: bio EGFr IC50
How it was run: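 EGFR captured from A431 cell lysate onto anti-EGFR-coated plates, then incubated with test compound for 30 min at room temperature. Tyrosine phosphorylation with ATP/MnCl2 was stopped with EDTA after 5 min and detected by anti-phosphotyrosine ELISA with peroxidase/ABTS read-out.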

[1] = molecular target: Myc-GyrB-FGFR fusion protein (Homo sapiens, UniProt P11362); test: Biochemical FGFR assay (ELISA); details: read-out: bio fgfR1 IC50
Myc-GyrB-FGFR fusion protein, sequence (P11362 478-767 limits assumed): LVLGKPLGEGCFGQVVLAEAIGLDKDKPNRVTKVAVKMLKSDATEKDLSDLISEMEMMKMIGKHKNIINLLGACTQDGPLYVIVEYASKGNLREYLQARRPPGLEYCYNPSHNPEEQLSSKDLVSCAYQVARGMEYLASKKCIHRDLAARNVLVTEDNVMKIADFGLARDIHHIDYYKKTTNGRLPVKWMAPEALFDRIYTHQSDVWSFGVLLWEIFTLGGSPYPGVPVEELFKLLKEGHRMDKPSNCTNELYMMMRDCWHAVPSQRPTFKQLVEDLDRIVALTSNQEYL
Method: This assay measures in vitro kinase activity of the Myc-GyrB-FGFR fusion protein using ELISA.
Materials and Reagents • 1. HNTG
PBS (Dulbecco's Phosphate-Buffered Saline, Gibco Catalog # 450-1300EB). • 3. Blocking Buffer. • 4. Kinase Buffer.
Working solution: 100 mM in ethanol. • 6.
ABTS Solution. • 10. Hydrogen peroxide 30% solution ( Fisher Catalog # H325). • 11. ABTS/H2O2. • 12. 0.2 M HCl. • 13.
Prepare 1.0 mM solution in MilliQ H2O, adjust pH to 7.2 with HCl. • 14.
Prepare 5 M solution in MilliQ H2O. • 15. MgCl, (Fisher Cat. No. M33-500).
Prepare 1 M solution in MilliQ H2O. • 16. HEPES (Fisher Cat. No. BP310-500).
Prepare 1 M solution in MilliQ H2O, adjust pH to 7.5, sterile filter. • 17. TBST Buffer. • 18. Sodium Carbonate Buffer (Fisher Cat. No. S495).
Prepare 0.1 M solution in MilliQ H2O, adjust pH to 9.6 with NaOH, filter. • 19. Dithiothreitol (DTT, Fisher Cat. No. BP172-25).
Prepare 0.5 mM working solution in MilliQ H2O just prior to-use. Store at −20° C. until used, discard any leftover. • 20. MnCl2. • 21. Triton X-100. • 22. Goat α-Rabbit IgG (Cappel). • 23. Affinity purified Rabbit α GST GyrB (Biochemistry Lab. SUGEN, Inc.).
All of the following steps are conducted at room temperature unless otherwise indicated. • 1. Coat Corning 96-well ELISA plates with 2 μg Goat α-Rabbit antibody per well in Carbonate Buffer such that total well volume is 100 μl. Store overnight at 40° C. • 2. Remove unbound Goat a-Rabbit antibody by inverting plate to remove liquid. Pat plate on a paper towel to remove excess liquid and bubbles • 3.. Add 150 μl Blocking Buffer (5% Low Fat Milk in PBS) to each well. Incubate while shaking on a micro-titer plate shaker for 30 min. • 4. Wash 4× with TBST. Pat plate on a paper towel to remove excess liquid and bubbles. • 5. Add 0.5 μg Rabbit α-GyrB antibody per well. Dilute antibody in DPBS to a final volume of 100 μl per well. Incubate with shaking on a micro-titer plate shaker at room temperature for 1 hour. • 6. Wash 4× with TBST as described in step 4. • 7. Add 2 μg COS/FGFR cell lysate (Myc-GyrB-FGFR source) in HNTG to each well to give a final volume of 100 μl per well. Incubate with shaking on a micro-titer plate shaker for 1 hour. • 8. Wash 4× with TBST as described in step 4. • 9. Add 80 μl of 1× kinase buffer per well. • 10. […] Transfer 10 μ l of diluted test compound solution and control wells from polypropylene plate wells to the corresponding ELISA plate wells, incubate with shaking on a micro-titer plate shaker for 20 minutes. • 12. Add 10 μl of 70 μM ATP diluted in kinase buffer to positive control and test wells (Final ATP concentration is 7 EM/well). Add 10 μl 1× kinase buffer to negative control wells. Incubate with shaking on a micro-titer plate shaker for 15 min. • 13. Stop kinase reaction by adding 5 μl 0.5 M EDTA to all wells. • 14. Wash 4× with TBST as described in step 4. • 15. Add 100 μl biotin conjugated α-phosphotyrosine mab (b4G10) diluted in TBST to each well. Incubate with shaking on a micro-titer plate shaker for 30 minutes. • 16. Prepare Vectastain ABC reagent. […] Mix by inverting tube several times. Add 1 drop reagent B and mix again. • 17. Wash 4× with TBST as described in step 4. • 18. Add 100 μl ABC HRP reagent to each well. Incubate with shaking on a micro-titer plate shaker for 30 minutes. • 19. Wash 4× with TBST as described in step 4. • 20. Add 100 μl of ABTS/H2O2 solution to each well. • 22. Incubate 5 to 15 minutes with shaking. Remove any bubbles. • 23. If necessary stop reaction by adding 1 00 μl of 0.2M HCl/well. • 24.

EGFR, sequence (P00533 25-1210): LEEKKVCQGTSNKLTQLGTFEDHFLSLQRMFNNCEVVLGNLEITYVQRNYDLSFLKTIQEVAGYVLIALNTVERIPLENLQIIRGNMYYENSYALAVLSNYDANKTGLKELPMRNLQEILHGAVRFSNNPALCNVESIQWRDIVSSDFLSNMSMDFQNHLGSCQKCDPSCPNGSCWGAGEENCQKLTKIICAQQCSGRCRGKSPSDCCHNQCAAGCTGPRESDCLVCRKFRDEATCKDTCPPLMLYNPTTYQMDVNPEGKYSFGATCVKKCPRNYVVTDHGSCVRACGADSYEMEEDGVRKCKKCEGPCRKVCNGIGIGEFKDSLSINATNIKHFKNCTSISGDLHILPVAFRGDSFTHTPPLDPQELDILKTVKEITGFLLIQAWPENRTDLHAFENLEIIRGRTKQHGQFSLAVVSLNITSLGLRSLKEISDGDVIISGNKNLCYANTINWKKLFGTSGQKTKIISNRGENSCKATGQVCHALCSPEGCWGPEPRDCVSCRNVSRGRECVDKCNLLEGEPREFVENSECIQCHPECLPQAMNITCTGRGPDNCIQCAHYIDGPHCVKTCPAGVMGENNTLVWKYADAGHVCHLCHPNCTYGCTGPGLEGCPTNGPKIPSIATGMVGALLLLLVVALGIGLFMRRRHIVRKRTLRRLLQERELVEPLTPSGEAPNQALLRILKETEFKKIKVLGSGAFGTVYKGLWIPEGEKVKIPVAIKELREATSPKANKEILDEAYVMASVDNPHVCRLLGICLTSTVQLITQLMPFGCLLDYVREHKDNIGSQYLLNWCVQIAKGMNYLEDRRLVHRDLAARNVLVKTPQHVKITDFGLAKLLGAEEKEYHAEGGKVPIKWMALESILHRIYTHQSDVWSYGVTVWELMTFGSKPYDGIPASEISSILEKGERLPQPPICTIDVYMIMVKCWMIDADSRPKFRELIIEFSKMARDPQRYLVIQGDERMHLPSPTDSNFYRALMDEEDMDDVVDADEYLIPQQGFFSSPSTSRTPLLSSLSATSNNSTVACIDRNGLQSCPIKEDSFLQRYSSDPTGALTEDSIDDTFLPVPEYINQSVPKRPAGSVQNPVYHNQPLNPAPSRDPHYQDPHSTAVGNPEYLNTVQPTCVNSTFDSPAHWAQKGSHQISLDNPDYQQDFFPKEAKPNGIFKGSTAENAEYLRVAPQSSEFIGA

| Compound | IC50 (EGFR) | IC50 [1] |
| --- | --- | --- |
| O=C(O)CCc1c(/C=C2\C(=O)Nc3cc(Cl)ccc32)[nH]c2c1CCCC2 [Example 195, 3-[2-(6-Chloro-2-oxo-1,2-dihydroindol-3-ylidenemethyl)-4,5,6,7-tetrahydro-1H-indol-3-yl]-propionic acid] | 36500 nM | 20 nM |
| COc1ccc(-c2ccc3c(c2)NC(=O)/C3=C\c2[nH]c3c(c2CCC(=O)O)CCCC3)cc1 [Example 205, 3-{2-[6-(4-Methoxyphenyl)-2-oxo-1,2-dihydro-indol-3-ylidenemethyl]-4,5,6,7-tetrahydro-1H-indol-3-yl}-propionic acid] | 16200 nM | 2020 nM |
| O=C(O)CCc1c(/C=C2\C(=O)Nc3ncccc32)[nH]c2c1CCCC2 [Example 203, 3-[2-(2-Oxo-1,2-dihydropyrrolo[2,3-b]pyridin-3-ylidenemethyl)-4,5,6,7-tetrahydro-1H-indol-3-yl]-propionic acid] | > 12500 nM | 2270 nM |
